Assay results: patent US8338465B2, “Cyclic carboxylic acid rhodanine derivatives for the treatment and prevention of tuberculosis” (priority 2006, dated 2012)

target: T1, dihydrolipoamide acyltransferase (DlaT) (Mycobacterium tuberculosis, UniProt P9WIS7); assay: DlaT inhibition (Dlat IC50); DTNB peroxidase assay with Lpd, DlaT and AhpD; type: biochemical; settings: Table 1, Compounds A1 to A294; read-out: Dlat IC50 category
T1 sequence (P9WIS7 1-553): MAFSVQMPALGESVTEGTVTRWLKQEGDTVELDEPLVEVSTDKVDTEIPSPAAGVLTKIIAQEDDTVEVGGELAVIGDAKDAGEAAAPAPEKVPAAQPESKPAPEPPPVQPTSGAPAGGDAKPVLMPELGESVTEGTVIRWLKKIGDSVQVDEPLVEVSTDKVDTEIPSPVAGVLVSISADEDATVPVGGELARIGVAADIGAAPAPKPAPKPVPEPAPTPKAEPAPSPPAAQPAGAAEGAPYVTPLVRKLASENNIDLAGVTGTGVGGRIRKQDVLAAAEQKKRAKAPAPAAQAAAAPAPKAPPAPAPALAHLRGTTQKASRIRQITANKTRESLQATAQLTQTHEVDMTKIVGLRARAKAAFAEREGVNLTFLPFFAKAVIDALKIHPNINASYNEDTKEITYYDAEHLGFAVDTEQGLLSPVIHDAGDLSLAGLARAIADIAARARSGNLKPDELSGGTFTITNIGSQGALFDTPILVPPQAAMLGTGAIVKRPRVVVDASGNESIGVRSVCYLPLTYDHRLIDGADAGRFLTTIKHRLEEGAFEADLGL

For `CC(C)(c1ccccc1)c1ccc(-c2ccc(C=C3SC(=S)N(c4cccc(C(=O)O)c4)C3=O)o2)cc1` [Compound A95], which IC50 is on record?
The IC50 was < 10 µM.

`CC(C)(c1ccccc1)c1ccc(-c2ccc(C=C3SC(=S)N(c4cc(C(=O)O)ccc4Cl)C3=O)o2)cc1` [Compound A96] was tested. Which IC50 did it give?
Its IC50 is < 10 µM.

For `COc1ccc(C(=O)O)cc1N1C(=O)C(=Cc2ccc(-c3ccc(C(C)(C)c4ccccc4)cc3)o2)SC1=S` [Compound A97], which IC50 is on record?
Its IC50 is 11 to 40 µM.

With `Cc1c(C(=O)O)cccc1N1C(=O)C(=Cc2ccc(-c3ccc(C(C)(C)c4ccccc4)cc3)o2)SC1=S` [Compound A98] as the molecule, how does the IC50 read?
The IC50 was < 10 µM.

For `O=C(O)c1ccc(F)c(N2C(=O)C(=Cc3ccc(-c4ccccc4Cl)o3)SC2=S)c1` [Compound A99], which IC50 is on record?
The IC50 was < 10 µM.

How did the IC50 turn out when `CC(C)(C)c1ccc(-c2ccc(C=C3SC(=S)N(c4cc(C(=O)O)ccc4F)C3=O)o2)cc1` [Compound A100] was run?
The IC50 was < 10 µM.

Which IC50 does the source give for `O=C(O)c1ccc(F)c(N2C(=O)C(=Cc3ccc(-c4ccc(C5CCCCC5)cc4)o3)SC2=S)c1` [Compound A101] here?
The IC50 was < 10 µM.

`Cc1ccc(C(=O)O)cc1N1C(=O)C(=Cc2ccc(-c3ccc(C(C)(C)c4ccccc4)cc3)o2)SC1=S` [Compound A102] was tested. Which IC50 did it give?
The IC50 was < 10 µM.

For `O=C(O)c1ccc(F)c(N2C(=O)C(=Cc3ccc(-c4cccc(C(F)(F)F)c4)o3)SC2=S)c1` [Compound A103], which IC50 is on record?
The IC50 was < 10 µM.

With `O=C(O)c1ccc(F)c(N2C(=O)C(=Cc3ccc(-c4ccc(Cl)cc4)o3)SC2=S)c1` [Compound A104] as the molecule, how does the IC50 read?
Its IC50 is < 10 µM.

For `O=C(O)c1ccc(F)c(N2C(=O)C(=Cc3ccc(-c4ccc(Cl)c(Cl)c4)o3)SC2=S)c1` [Compound A105], which IC50 is on record?
Its IC50 is < 10 µM.

Which IC50 does the source give for `O=C(O)c1ccc(F)c(N2C(=O)C(=Cc3ccc(-c4c(Cl)cccc4Cl)o3)SC2=S)c1` [Compound A106] here?
The IC50 was < 10 µM.

How did the IC50 turn out when `O=C(O)c1ccc(Cl)c(N2C(=O)C(=Cc3ccc(-c4ccc(Cl)c(Cl)c4)o3)SC2=S)c1` [Compound A107] was run?
Its IC50 is < 10 µM.

How did the IC50 turn out when `O=C(O)c1cc(N2C(=O)C(=Cc3ccc(-c4ccc(Cl)c(Cl)c4)o3)SC2=S)ccc1Cl` [Compound A108] was run?
Its IC50 is < 10 µM.

How did the IC50 turn out when `O=C(O)c1cc(N2C(=O)C(=Cc3ccc(-c4c(Cl)cccc4Cl)o3)SC2=S)ccc1Cl` [Compound A109] was run?
The IC50 was < 10 µM.

With `O=C(O)c1ccc(Cl)c(N2C(=O)C(=Cc3ccc(-c4c(Cl)cccc4Cl)o3)SC2=S)c1` [Compound A110] as the molecule, how does the IC50 read?
Its IC50 is < 10 µM.

`Cc1c(C(=O)O)cccc1N1C(=O)C(=Cc2ccc(-c3ccc(Cl)c(Cl)c3)o2)SC1=S` [Compound A111] was tested. Which IC50 did it give?
The IC50 was < 10 µM.

Which IC50 does the source give for `Cc1c(C(=O)O)cccc1N1C(=O)C(=Cc2ccc(-c3c(Cl)cccc3Cl)o2)SC1=S` [Compound A112] here?
The IC50 was < 10 µM.

For `Cc1ccc(C(=O)O)cc1N1C(=O)C(=Cc2ccc(-c3ccc(Cl)c(Cl)c3)o2)SC1=S` [Compound A113], which IC50 is on record?
The IC50 was < 10 µM.

Which IC50 does the source give for `Cc1ccc(C(=O)O)cc1N1C(=O)C(=Cc2ccc(-c3c(Cl)cccc3Cl)o2)SC1=S` [Compound A114] here?
Its IC50 is < 10 µM.

Which IC50 does the source give for `O=C(O)c1cccc(N2C(=O)C(=Cc3ccc(-c4ccc(C(=O)O)c(O)c4)o3)SC2=S)c1` [Compound A115] here?
The IC50 was 11 to 40 µM.

How did the IC50 turn out when `CN(C)c1ccc(-c2ccc(C=C3SC(=S)N(c4cccc(C(=O)O)c4)C3=O)o2)cc1` [Compound A116] was run?
Its IC50 is 11 to 40 µM.

With `O=C(O)c1cccc(N2C(=O)C(=Cc3ccc(-c4cccc(Cl)c4Cl)o3)SC2=S)c1` [Compound A117] as the molecule, how does the IC50 read?
The IC50 was < 10 µM.

`O=C(O)CCc1cccc(N2C(=O)C(=Cc3ccc(-c4ccccc4Cl)o3)SC2=S)c1` [Compound A118] was tested. Which IC50 did it give?
Its IC50 is < 10 µM.

`O=C(O)CCc1cccc(N2C(=O)C(=Cc3ccc(-c4cccc(Cl)c4)o3)SC2=S)c1` [Compound A119] was tested. Which IC50 did it give?
Its IC50 is < 10 µM.

How did the IC50 turn out when `O=C(O)CCc1cccc(N2C(=O)C(=Cc3ccc(-c4ccc(Cl)cc4)o3)SC2=S)c1` [Compound A120] was run?
Its IC50 is < 10 µM.

How did the IC50 turn out when `O=C(O)c1cccc(N2C(=O)C(=Cc3ccc(-c4cc(Cl)cc(Cl)c4)o3)SC2=S)c1` [Compound A121] was run?
Its IC50 is 11 to 40 µM.

For `CN(C)Cc1ccc(-c2ccc(C=C3SC(=S)N(c4cccc(C(=O)O)c4)C3=O)o2)cc1` [Compound A122], which IC50 is on record?
The IC50 was 11 to 40 µM.

How did the IC50 turn out when `O=C(O)c1cccc(N2C(=O)C(=Cc3ccc(-c4ccc(Br)cc4)o3)SC2=S)c1` [Compound A123] was run?
The IC50 was 11 to 40 µM.

How did the IC50 turn out when `O=C(O)c1cccc(N2C(=O)C(=Cc3ccc(-c4ccc(O)cc4Cl)o3)SC2=S)c1` [Compound A124] was run?
Its IC50 is < 10 µM.

For `CN(C)c1cccc(-c2ccc(C=C3SC(=S)N(c4cccc(C(=O)O)c4)C3=O)o2)c1` [Compound A125], which IC50 is on record?
The IC50 was < 10 µM.

Which IC50 does the source give for `C#Cc1ccc(-c2ccc(C=C3SC(=S)N(c4cccc(C(=O)O)c4)C3=O)o2)cc1` [Compound A126] here?
Its IC50 is 11 to 40 µM.

With `O=C(O)c1cccc(N2C(=O)C(=Cc3ccc(-c4cccc([N+](=O)[O-])c4)o3)SC2=S)c1` [Compound A127] as the molecule, how does the IC50 read?
Its IC50 is < 10 µM.

With `O=C(O)c1ccc(Cl)c(N2C(=O)C(=Cc3ccc(-c4cccc([N+](=O)[O-])c4)o3)SC2=S)c1` [Compound A128] as the molecule, how does the IC50 read?
The IC50 was < 10 µM.

For `O=C(O)c1cccc(N2C(=O)C(=Cc3ccc(-c4ccccc4[N+](=O)[O-])o3)SC2=S)c1` [Compound A129], which IC50 is on record?
Its IC50 is > 41 µM.

Which IC50 does the source give for `O=C(O)c1cccc(N2C(=O)C(=Cc3ccc(-c4ccc([N+](=O)[O-])cc4)o3)SC2=S)c1` [Compound A130] here?
The IC50 was 11 to 40 µM.

For `O=C(O)c1cccc(N2C(=O)C(=Cc3ccc(-c4ccc(Cl)cc4[N+](=O)[O-])o3)SC2=S)c1` [Compound A131], which IC50 is on record?
The IC50 was 11 to 40 µM.

For `O=C(O)c1cccc(N2C(=O)C(=Cc3ccc(-c4ccccc4Br)o3)SC2=S)c1` [Compound A132], which IC50 is on record?
The IC50 was 11 to 40 µM.

With `CC(C)(C)c1ccc(-c2ccc(C=C3SC(=S)N(c4cccc(C(=O)O)c4)C3=O)o2)c(O)c1` [Compound A133] as the molecule, how does the IC50 read?
Its IC50 is < 10 µM.

With `Cc1ccccc1-c1ccc(C=C2SC(=S)N(c3cccc(C(=O)O)c3)C2=O)o1` [Compound A134] as the molecule, how does the IC50 read?
Its IC50 is 11 to 40 µM.

Which IC50 does the source give for `COc1ccccc1-c1ccc(C=C2SC(=S)N(c3cccc(C(=O)O)c3)C2=O)o1` [Compound A135] here?
Its IC50 is < 10 µM.

Which IC50 does the source give for `O=C(O)c1ccc(Cl)c(N2C(=O)C(=Cc3ccc(-c4ccc(N5CCOCC5)cc4)o3)SC2=S)c1` [Compound A137] here?
Its IC50 is < 10 µM.

`O=C(O)c1cccc(N2C(=O)C(=Cc3ccc(-c4ccccc4F)o3)SC2=S)c1` [Compound A138] was tested. Which IC50 did it give?
Its IC50 is 11 to 40 µM.

Which IC50 does the source give for `COc1ccccc1-c1ccc(C=C2SC(=S)N(c3cc(C(=O)O)ccc3F)C2=O)o1` [Compound A139] here?
The IC50 was < 10 µM.

For `COc1ccccc1-c1ccc(C=C2SC(=S)N(c3cc(C(=O)O)ccc3Cl)C2=O)o1` [Compound A140], which IC50 is on record?
The IC50 was < 10 µM.

How did the IC50 turn out when `COc1ccccc1-c1ccc(C=C2SC(=S)N(c3cc(C(=O)O)ccc3C)C2=O)o1` [Compound A141] was run?
The IC50 was < 10 µM.

`COc1ccccc1-c1ccc(C=C2SC(=S)N(c3cccc(C(=O)O)c3C)C2=O)o1` [Compound A142] was tested. Which IC50 did it give?
Its IC50 is < 10 µM.

`N#Cc1c(F)cccc1-c1ccc(C=C2SC(=S)N(c3cccc(C(=O)O)c3)C2=O)o1` [Compound A143] was tested. Which IC50 did it give?
The IC50 was 11 to 40 µM.

`Cc1ccccc1-c1ccc(C=C2SC(=S)N(c3cc(C(=O)O)ccc3F)C2=O)o1` [Compound A144] was tested. Which IC50 did it give?
Its IC50 is < 10 µM.

Which IC50 does the source give for `Cc1ccccc1-c1ccc(C=C2SC(=S)N(c3cc(C(=O)O)ccc3C)C2=O)o1` [Compound A145] here?
Its IC50 is < 10 µM.

How did the IC50 turn out when `COc1ccc(-c2ccc(C=C3SC(=S)N(c4cccc(C(=O)O)c4)C3=O)o2)cc1Cl` [Compound A146] was run?
Its IC50 is < 10 µM.

For `Cc1ccc(-c2ccc(C=C3SC(=S)N(c4cccc(C(=O)O)c4)C3=O)o2)cc1` [Compound A147], which IC50 is on record?
Its IC50 is 11 to 40 µM.

How did the IC50 turn out when `Cc1cc(F)ccc1-c1ccc(C=C2SC(=S)N(c3cccc(C(=O)O)c3)C2=O)o1` [Compound A148] was run?
Its IC50 is < 10 µM.
